The text below walks through data of patent US11484032B2, “Compositions for inhibition of insect sensing” (Vanderbilt University, priority 2011, dated 2022).

Read-outs that look alike come from different tables or passages of the source. A value given as a limit tells only on which side of the number the result lay.

As a reminder, the EC50 is the midpoint of the concentration-response curve.

Holding throughout (format): cell-based
In one assay the target is T1, AgORco+AgOR48 (Anopheles gambiae, UniProt Q7QCC7).
T1 construct: expressed in transfected cells
T1 sequence (Q7QCC7 1-478): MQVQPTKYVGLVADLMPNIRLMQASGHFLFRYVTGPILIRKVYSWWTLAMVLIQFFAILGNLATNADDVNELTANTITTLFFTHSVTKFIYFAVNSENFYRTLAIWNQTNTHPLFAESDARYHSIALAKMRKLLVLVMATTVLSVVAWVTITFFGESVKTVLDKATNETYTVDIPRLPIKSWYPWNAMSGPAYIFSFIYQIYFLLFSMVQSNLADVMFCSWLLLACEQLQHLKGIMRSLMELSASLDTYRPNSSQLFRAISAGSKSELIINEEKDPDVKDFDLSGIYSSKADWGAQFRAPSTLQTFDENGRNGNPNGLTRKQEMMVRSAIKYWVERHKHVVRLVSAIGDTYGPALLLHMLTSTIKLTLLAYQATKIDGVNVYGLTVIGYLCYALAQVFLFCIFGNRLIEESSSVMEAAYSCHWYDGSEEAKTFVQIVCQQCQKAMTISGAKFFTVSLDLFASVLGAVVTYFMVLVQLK
Kind of assay: Ca2+ imaging, HEK cells expressing AgORco+AgOR48. The settings on record: for EC50: read-out: Orco + 48 Agonist EC50; for Orco + 48 Agonist % value Of VUAA1: relative to VUAA1; for Orco + 48 Agonist EC50 (given only relative to VUAA1): comparison with VUAA1 in words; for Orco + 48 Agonist EC50 (relative to VUAA1): stated in words relative to VUAA1. The text has this: (§1) For transient transfections, ORs were cloned into pCl (Promega) and transfected into Flp-In™ T-REx™293 cell lines (Invitrogen) with Fu GENE6 (Roche). For the creation of stable cell lines, a cell culture expression vector capable of expressing Orco in conjunction with a conventional OR, pcDNA5/FRT/TO (Invitrogen) was modified to create two individual expression cassettes each under the control of a separate CMV/Tet02 promoter and a BGH poly-adenylation signal. Cells (as above) were transfected with the modified pcDNA5 plasmid along with POG44 (a Flp recombinase expression plasmid) to facilitate site-specific recombination. Stable cell lines were selected using Hygromycin B (Invitrogen). Cells were maintained in DMEM (Invitrogen) supplemented with 10% Tetracycline-free FBS (HyClone) and 15 ng/ml Blasticidin. For fluorometric Ca2+ measurements, stable lines expressing ORs of interest were seeded at 20,000 cells/well in black wall, poly-lysine coated 384-well cell culture plates (Greiner) and treated with […] tetracycline (Sigma) overnight to induce OR expression. Cells were dye-loaded with 1.8 uM Fluo-4 AM (Molecular Probes), 2.5 mM Probenecid (Molecular Probes) in assay buffer (20 mM HEPES, IX HBSS) for 45 minutes at 37° C. in 5% CO2 prior to each assay. Ca^2+ mobilization was assayed in an FDSS6000 (Hamamatsu). Baseline readings were taken for 20 s before automated addition of compound previously diluted in DMSO and assay buffer. Ratios were described as Maximum/Minimum response and each response was normalized to the maximum responder.
The ability of VUAA1 and its analogs to agonize representative ORco proteins from dipteran (Anopheles gambiae, AgORco), lepidopteran (Heliothis virescens, HvORco) and hymenopteran (Harpegnathos saltator, HsORco) orders was tested. […] Furthermore, the hierarchy of VUAA series potency was the same, irrespective of whether AgORco was co-expressed with AgOR65 or AgOR48 tuning ORs (FIG. 45). Without wishing to be bound by a particular theory, odorant ligands are thought to activate the complex via interaction with the tuning ORx and thereby affect ORco/ORx channel properties. […] These findings indicate VUAA-class OR co-modulators are viable compounds for further development as broad-spectrum insect control strategies, and VUAA4 can provide an advance in the pharmacological profile of VUAA-based compounds.

In the next assay the target is T2, Orco (AgORco) (Anopheles gambiae, UniProt Q7QCC7).
T2 construct: expressed in transfected cells
T2 sequence (Q7QCC7 1-478): T1 sequence (Q7QCC7 1-478)
As to the kind of experiment: Fluo-4 Ca2+ imaging, HEK293 cells expressing Orco alone. Particulars: for Emax: HEK293, read-out: Orco Agonist % value Of VUAA1; for EC50 / Orco Agonist % value Of VUAA1 / Orco Agonist EC50 (relative to VUAA1): Orco alone; for Orco Agonist % value Of VUAA1: relative to VUAA1; for Orco Agonist EC50 (relative to VUAA1): stated in words relative to VUAA1.
Source text: as §1

The target in another assay is T3, AgORco+AgOR10 (Anopheles gambiae, UniProt Q7QCC7).
T3 construct: expressed in transfected cells
T3 sequence (Q7QCC7 1-478): T1 sequence (Q7QCC7 1-478)
Kind of assay: Fluo-4 Ca2+ imaging, HEK293 cells expressing Orco+AgOR10. On the set-up: Orco 10 + Orco Angatonist % Reduction / Orco 10 + Orco Agonist % of control: concentration or dose not given beside the values. The settings on record: 10 + Orco, agonist mode.
Source text: as §1
As part of an ongoing, cell based calcium imaging screen for novel small-molecule modulators of AgORs that might disrupt olfactory-driven mosquito behaviors (Rinker et al manuscript in preparation), the inventors identified a number of compounds that activated AgOR10+AgORco-expressing human embryonic kidney (HEK293) cells. One of these compounds, (FIG. 3 A) denoted here as VUAA1, elicited activity consistent with allosteric agonism and was pursued for its novel properties. The identity of VUAA1 was verified using high-resolution mass spectrometry (HRMS) as well as ^1H and ^13C NMR. […] As AgORco was the common element among these functional responses, the inventors postulated that VUAA1 was a potential AgORco agonist.

For the next assay, the target named is T4, AgOrco+AgOR65 (Anopheles gambiae, UniProt Q7QCC7).
T4 construct: expressed in transfected cells
T4 sequence (Q7QCC7 1-478): T1 sequence (Q7QCC7 1-478)
Kind of assay: Ca2+ imaging, HEK cells expressing AgOrco+AgOR65. Particulars: for EC50: read-out: Orco + 65 Agonist EC50.
Source text: as §1
For VUAA0, a single methyl from the para position of the aniline ring (compound VUAA0, FIG. 44) in the VUAA1 structure was removed. […] In VUAA0.5, unsaturation was introduced at the para position of the aniline ring (VUAA0.5, FIG. 44). […] In VUAA2, the ethyl group of the aniline ring in VUAA1 was replaced with an isopropyl group (VUAA2, FIG. 44).

Regarding `CCn1c(SCC(=O)Nc2ccc(C(C)C)cc2)nnc1-c1ccnc(F)c1`, at AgORco+AgOR48 (Orco + 48), the EC50 was 75.2 µM and the “Orco + 48 Agonist % value Of VUAA1” value stood at 62%. The Emax at Orco (AgORco) came to 38%. Also, on Orco (AgORco) (read-out: Orco Agonist EC50), the EC50 was determined as 100 µM.
For the molecule `CCc1ccc(NC(=O)CSc2nnc(-c3ccncc3)n2C2CC2)cc1`, at AgORco+AgOR48 (Orco + 48, agonist), the half-maximal effective concentration (EC50) stood at 13 µM.
For `C=Cc1ccc(NC(=O)CSc2nnc(-c3ccncc3)n2CC)cc1`, at AgORco+AgOR48 (Orco + 48), the “Orco + 48 Agonist EC50 (given only relative to VUAA1)” value is “<VUAA1” and the “Orco + 48 Agonist % value Of VUAA1” value is reported as “<VUAA1”.
For the molecule `CCn1c(SCC(=O)Nc2ccc(C(C)C)cc2)nnc1-c1ccn(C)n1`, at Orco (AgORco) (agonist), the “Orco Agonist % value Of VUAA1” value is given as “<VUAA1” and the “Orco Agonist EC50 (relative to VUAA1)” value was “<VUAA1”.
Take `CCc1ccc(NC(=O)CSc2nnc(-c3cccnc3)n2CC)cc1` [drawing 373]: at AgORco+AgOR10, the “Orco 10 + Orco Agonist % of control” value is listed as 101.8%. Also, at AgORco+AgOR48 (Orco + 48), the EC50 was 14 µM and the “Orco + 48 Agonist % value Of VUAA1” value is recorded as 100%. At Orco (AgORco), the Emax is 100%. Also, the concentration for a half-maximal effect (EC50) on AgOrco+AgOR65 (Orco + 65) is 47 µM. The “Orco + 65 Agonist % value Of VUAA1” value at AgOrco+AgOR65 (Orco + 65, relative to VUAA1) is on record as 100%.
For the molecule `CCn1c(SCC(=O)Nc2ccc(C(C)C)cc2)nnc1-c1cccnc1` [drawing 381], at AgORco+AgOR10 (qualitative, relative to VUAA1), the “Orco 10 + Orco Agonist, compared with VUAA1” value is given as “>VUAA1”. Besides, the values for the EC50 at AgORco+AgOR48 (Orco + 48), at Orco (AgORco) (read-out: Orco Agonist EC50) and on AgOrco+AgOR65 (Orco + 65) were 9.9 µM, 12.9 µM and 9.6 µM, respectively. Also, the “Orco + 48 Agonist % value Of VUAA1” value on AgORco+AgOR48 (Orco + 48) was found to be 109%. Further, the Emax at Orco (AgORco) is 102%.
For `CCn1c(SCC(=O)Nc2ccc(C(C)C)cc2)nnc1-c1cc[nH]n1`, at Orco (AgORco) (agonist), the “Orco Agonist % value Of VUAA1” value was “<VUAA1” and the “Orco Agonist EC50 (relative to VUAA1)” value is listed as “<VUAA1”.
`CCc1ccc(NC(=O)CSc2nnc(-c3ccncc3)n2CC)cc1`: on AgORco+AgOR48 (Orco + 48), the “Orco + 48 Agonist EC50 (given only relative to VUAA1)” value is recorded as “<VUAA1” and the “Orco + 48 Agonist % value Of VUAA1” value is “<VUAA1”.
In the case of `CCn1c(SCC(=O)Nc2ccc(C(C)C)cc2)nnc1-c1ccncc1`, the figures for the concentration for a half-maximal effect (EC50) at AgORco+AgOR48 (Orco + 48), at Orco (AgORco) (read-out: Orco Agonist EC50) and on AgOrco+AgOR65 (Orco + 65) were 3.5 µM, 7.4 µM and 8.2 µM, respectively. In addition, at AgORco+AgOR48 (Orco + 48), the “Orco + 48 Agonist % value Of VUAA1” value amounted to 112%. Moreover, the Emax on Orco (AgORco) was found to be 136%.
In the case of `CCCc1ccc(NC(=O)CSc2nnc(-c3ccncc3)n2C2CC2)cc1`, on AgORco+AgOR48 (Orco + 48, agonist), the “Orco + 48 Agonist % value Of VUAA1” value is “<VUAA1” and the “Orco + 48 Agonist EC50 (relative to VUAA1)” value was “<VUAA1”.
For the molecule `CCn1c(SCC(=O)Nc2ccc(C(C)C)cc2)nnc1-c1cncs1`, the EC50 on AgORco+AgOR48 (Orco + 48, agonist) stood at 16.8 µM.
With `C=Cc1ccc(NC(=O)CSc2nnc(-c3ccncc3)n2C2CC2)cc1`, on AgORco+AgOR48 (Orco + 48, agonist), the “Orco + 48 Agonist % value Of VUAA1” value was “<VUAA1” and the “Orco + 48 Agonist EC50 (relative to VUAA1)” value is recorded as “<VUAA1”.
For the molecule `CC(C)c1ccc(NC(=O)CSc2nnc(-c3ccncc3)n2C2CC2)cc1` [drawing 634], the EC50 amounted to 1.9 µM on AgORco+AgOR48 (Orco + 48, agonist); 3.5 µM on Orco (AgORco) (agonist); 3.1 µM on AgOrco+AgOR65 (Orco + 65, agonist). Also, at AgORco+AgOR48 (Orco + 48, agonist), the “Orco + 48 Agonist % value Of VUAA1” value came out at 122%.
Consider `CCn1c(SCCC(=O)Nc2ccc(C(C)C)cc2)nnc1-c1cccnc1`, for which the EC50 at AgORco+AgOR48 (Orco + 48) came to 2.2 µM.
